Experimental data published in US20120100990A1, “4 -AMINOPICOLINATES AND THEIR USE AS HERBICIDES” (SYNGENTA CROP PROTECTION LLC, priority 2009, published 2012).

Experiments:
Assay type in all cases: in vivo
[1] = test system: Alopecurus myosuroides (ALOMY); assay: Pre-emergence biological efficacy, glasshouse pot test; settings: 312 h, 1,000 g/ha, evaluated after 13 days, 100=total damage, 0=no damage, read-out: Percentage damage caused to weed species, pre-emergence, ALOMY
Description: (§1) Seeds of Alopecurus myosuroides (ALOMY), Setaria faberi (SETFA), Echinochloa crus-galli (ECHCG), Solanum nigrum (SOLNI), Amaranthus retroflexus (AMARE) and Ipomea hederaceae (IPOHE) were sown in standard soil in pots. After cultivation for one day under controlled conditions in a glasshouse (at 24/16° C., day/night; 14 hours light; 65% humidity), the plants were sprayed with an aqueous spray solution derived from the formulation of the technical active ingredient in acetone/water (50:50) solution containing 0.5% Tween 20 (polyoxyethylene sorbitan monolaurate, CAS RN 9005-64-5) to give a final dose of 1000 or 250 g/ha of test compound. The test plants were then grown under controlled conditions in the glasshouse (at 24/16° C., day/night; 14 hours light; 65% humidity) and watered twice daily. After 13 days the test was evaluated (100=total damage to plant; 0=no damage to plant).

[2] = test system: Amaranthus retroflexus (AMARE); assay: as above; settings: 312 h, 1,000 g/ha, evaluated after 13 days, 100=total damage, 0=no damage, read-out: Percentage damage caused to weed species, pre-emergence, AMARE
Description: as §1

[3] = test system: Echinochloa crus-galli (ECHCG); assay: as above; settings: 312 h, 1,000 g/ha, evaluated after 13 days, 100=total damage, 0=no damage, read-out: Percentage damage caused to weed species, pre-emergence, ECHCG
Description: as §1

[4] = test system: Ipomea hederaceae (IPOHE); assay: as above; settings: Ipomoea hederacea, 312 h, 1,000 g/ha, evaluated after 13 days, 100=total damage, 0=no damage, read-out: Percentage damage caused to weed species, pre-emergence, IPOHE
Description: as §1

Setaria faberi (SETFA) [5] = assay: as above; settings: 312 h, 1,000 g/ha, evaluated after 13 days, 100=total damage, 0=no damage, read-out: Percentage damage caused to weed species, pre-emergence, SETFA
Description: as §1

Solanum nigrum (SOLNI) [6] = assay: as above; settings: 312 h, 1,000 g/ha, evaluated after 13 days, 100=total damage, 0=no damage, read-out: Percentage damage caused to weed species, pre-emergence, SOLNI
Description: as §1

[7] = test system: Alopecurus myosuroides (ALOMY); assay: Post-emergence biological efficacy, glasshouse pot test; settings: 312 h, 1,000 g/ha, evaluated after 13 days, 100=total damage, 0=no damage, read-out: Percentage damage caused to weed species, post-emergence, ALOMY
Description: as §1, with “for 8 days” for “for one day”, “grown on” for “grown”, “in a” for “in the”

[8] = test system: Amaranthus retroflexus (AMARE); assay: as above; settings: 312 h, 1,000 g/ha, evaluated after 13 days, 100=total damage, 0=no damage, read-out: Percentage damage caused to weed species, post-emergence, AMARE
Description: as §1, with “for 8 days” for “for one day”, “grown on” for “grown”, “in a” for “in the”

[9] = test system: Echinochloa crus-galli (ECHCG); assay: as above; settings: 312 h, 1,000 g/ha, evaluated after 13 days, 100=total damage, 0=no damage, read-out: Percentage damage caused to weed species, post-emergence, ECHCG
Description: as §1, with “for 8 days” for “for one day”, “grown on” for “grown”, “in a” for “in the”

[10] = test system: Ipomea hederaceae (IPOHE); assay: as above; settings: Ipomoea hederacea, 312 h, 1,000 g/ha, evaluated after 13 days, 100=total damage, 0=no damage, read-out: Percentage damage caused to weed species, post-emergence, IPOHE
Description: as §1, with “for 8 days” for “for one day”, “grown on” for “grown”, “in a” for “in the”

Setaria faberi (SETFA) [11] = assay: as above; settings: 312 h, 1,000 g/ha, evaluated after 13 days, 100=total damage, 0=no damage, read-out: Percentage damage caused to weed species, post-emergence, SETFA
Description: as §1, with “for 8 days” for “for one day”, “grown on” for “grown”, “in a” for “in the”

Solanum nigrum (SOLNI) [12] = assay: as above; settings: 312 h, 1,000 g/ha, evaluated after 13 days, 100=total damage, 0=no damage, read-out: Percentage damage caused to weed species, post-emergence, SOLNI
Description: as §1, with “for 8 days” for “for one day”, “grown on” for “grown”, “in a” for “in the”

| Structure (SMILES) | pest or weed control at 1000 g/ha [1] [%] | pest or weed control at 1000 g/ha [2] [%] | pest or weed control at 1000 g/ha [3] [%] | pest or weed control at 1000 g/ha [4] [%] | pest or weed control at 1000 g/ha (Setaria faberi (SETFA) [5]) [%] | pest or weed control at 1000 g/ha (Solanum nigrum (SOLNI) [6]) [%] | pest or weed control at 1000 g/ha [7] [%] | pest or weed control at 1000 g/ha [8] [%] | pest or weed control at 1000 g/ha [9] [%] | pest or weed control at 1000 g/ha [10] [%] | pest or weed control at 1000 g/ha (Setaria faberi (SETFA) [11]) [%] | pest or weed control at 1000 g/ha (Solanum nigrum (SOLNI) [12]) [%] |
| --- | --- | --- | --- | --- | --- | --- | --- | --- | --- | --- | --- | --- |
| C=Cc1c(NCc2ccccc2C)cc(Cl)nc1C(=O)OC [Compound 9-12, 6-Chloro-3-ethenyl-4-[(2-methylphenyl-methyl)-amino]-pyridine-2-carboxylic acid methyl ester] | 10 | 90 | 10 | 60 | 0 | 100 | 40 | 100 | 50 | 40 | 50 | 80 |
| C=Cc1c(NCc2ccc(N(C)C)cc2)cc(Cl)nc1C(=O)OC [Compound 14-12, 6-Chloro-4-[(4-dimethylamino-phenylmethyl)-amino]-3-ethenyl-pyridine-2-carboxylic acid methyl ester] | 80 | 100 | 30 | 100 | 80 | 100 | 60 | 100 | 50 | 50 | 80 | 90 |
| COC(=O)c1nc(Cl)cc(NCc2ccccc2[N+](=O)[O-])c1Cl [Compound 15-2, 3,6-Dichloro-4-[(2-nitrophenylmethyl)-amino]-pyridine-2-carboxylic acid methyl ester] | 90 | 100 | 80 | 100 | 90 | 100 | 70 | 100 | 70 | 90 | 90 | 100 |
| C=Cc1c(NCc2ccccc2[N+](=O)[O-])cc(Cl)nc1C(=O)OC [Compound 15-12, 6-Chloro-3-ethenyl-4-[(2-nitrophenylmeth-yl)-amino]-pyridine-2-carboxylic acid methyl ester] | 70 | 100 | 90 | 100 | 80 | 100 | 80 | 100 | 70 | 60 | 100 | 90 |
| COC(=O)c1nc(Cl)cc(NCc2ccccc2[N+](=O)[O-])c1Br [Compound 15-17, 3-Bromo-6-chloro-4-[(2-nitrophenylmethyl)-amino]-pyridine-2-carboxylic acid methyl ester] | 40 | 100 | 20 | 90 | 60 | 90 | 50 | 80 | 30 | 80 | 80 | 90 |
| C=Cc1c(C(=O)OC)nc(Cl)c(F)c1NCc1ccccc1[N+](=O)[O-] [Compound 15-27, 6-Chloro-3-ethenyl-5-fluoro-4-[(2-nitrophenylmeth-yl)amino]-pyridine-2-carboxylic acid methyl ester] | 90 | 100 | 90 | 90 | 90 | 100 | 70 | 100 | 70 | 90 | 90 | 100 |
| COC(=O)c1nc(Cl)c(F)c(NCc2ccccc2[N+](=O)[O-])c1Br [Compound 15-29, 3-bromo-6-chloro-5-fluoro-4-[(2-nitrophenyl-methyl)-amino]-pyridine-2-carboxylic acid methyl ester] | 90 | 90 | 70 | 100 | 40 | 90 | 50 | 100 | 50 | 70 | 80 | 100 |
| COC(=O)c1nc(Cl)c(F)c(NCc2ccccc2[N+](=O)[O-])c1C [Compound 15-31, 6-Chloro-5-fluoro-3-methyl-4-[(2-nitrophenyl-methyl)-amino]-pyridine-2-carboxylic acid methyl ester] | 20 | 100 | 20 | 70 | 20 | 90 | 20 | 100 | 50 | 70 | 80 | 100 |
| C=Cc1c(C(=O)OC)nc(Cl)c(Cl)c1NCc1ccccc1[N+](=O)[O-] [Compound 15-39, 5,6-Dichloro-3-ethenyl-4-[(2-nitrophenylmeth-yl)-amino]-pyridine-2-carboxylic acid methyl ester] | 30 | 100 | 80 | 90 | 40 | 100 | 60 | 100 | 60 | 90 | 80 | 100 |
| COC(=O)c1nc(Cl)c(Cl)c(NCc2ccccc2[N+](=O)[O-])c1Br [Compound 15-41, 3-bromo-5,6-dichloro-4-[(2-nitrophenyl-methyl)-amino]-pyridine-2-carboxylic acid methyl ester] | 20 | 100 | 40 | 100 | 30 | 80 | 10 | 100 | 0 | 80 | 70 | 100 |
